# Laboratory results: ChEMBL document CHEMBL5614367, “Hydroxamic acid hybrids: Histone deacetylase inhibitors with anticancer therapeutic potency” (Eur J Med Chem, 2023)
# Key:
# [1] = test system: MM1.S; test: Antiproliferative activity against human MM1.S cells assessed as inhibition of cell growth incubated for 48 hrs by MTT assay; type: functional, cell-based
# [2] = test system: U-266; test: cells; type: functional, cell-based; conditions: Homo sapiens, U-266, 48 h
# [3] = Cytotoxicity against HEK293 cells assessed as inhibition of cell growth incubated for 48 hrs by MTT assay; type: toxicity, cell-based; conditions: human
# [4] = test system: RPMI-8226; test: Antiproliferative activity against human RPMI-8226 cells assessed as inhibition of cell growth incubated for 48 hrs by MTT assay; type: functional, cell-based; conditions: RPMI-8226, 48 h
# [5] = Cytotoxicity against human L02 cells assessed as inhibition of cell growth incubated for 48 hrs by MTT assay; type: toxicity, cell-based
# [6] = test system: HCT-116; test: cells; conditions: Homo sapiens
# [7] = test system: HT-29; test: Antiproliferative activity against human HT-29 cells; type: functional, cell-based
# [8] = test system: HepG2; test: Antiproliferative activity against human HepG2 cells; type: functional, cell-based
# [9] = test system: A549; test: Antiproliferative activity against human A549 cells
# [10] = test system: MCF7; test: Antiproliferative activity against human MCF7 cells measured after 72 hrs by MTT assay; type: functional, cell-based; conditions: MCF7, 72 h
# [11] = test system: A549; test: Antiproliferative activity against human A549 cells measured after 72 hrs by MTT assay; type: functional, cell-based; conditions: A549, 72 h
# [12] = test system: HCT-116; test: Antiproliferative activity against human HCT-116 cells measured after 72 hrs by MTT assay; type: functional, cell-based; conditions: HCT-116, 72 h
# [13] = biological target: Histone deacetylase 1 (Homo sapiens, UniProt Q13547); test: Inhibition of HDAC1 (unknown origin)
# Sequence of Histone deacetylase 1 (Q13547 whole entry, canonical isoform): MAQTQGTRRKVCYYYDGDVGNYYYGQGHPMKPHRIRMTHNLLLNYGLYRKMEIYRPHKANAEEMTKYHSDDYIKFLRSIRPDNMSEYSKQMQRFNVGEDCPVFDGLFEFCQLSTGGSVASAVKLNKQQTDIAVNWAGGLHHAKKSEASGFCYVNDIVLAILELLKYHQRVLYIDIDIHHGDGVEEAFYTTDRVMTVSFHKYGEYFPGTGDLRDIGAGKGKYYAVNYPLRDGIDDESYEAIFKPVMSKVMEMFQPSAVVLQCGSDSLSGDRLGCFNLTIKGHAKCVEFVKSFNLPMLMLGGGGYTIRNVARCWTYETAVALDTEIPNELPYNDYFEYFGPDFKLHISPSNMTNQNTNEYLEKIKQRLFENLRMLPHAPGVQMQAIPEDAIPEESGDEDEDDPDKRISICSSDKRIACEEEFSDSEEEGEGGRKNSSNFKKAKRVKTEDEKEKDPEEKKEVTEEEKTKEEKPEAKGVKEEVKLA
# [14] = biological target: Phosphatidylinositol 4,5-bisphosphate 3-kinase catalytic subunit alpha isoform (Homo sapiens, UniProt P42336); test: Inhibition of PI3Kalpha (unknown origin)
# Sequence of Phosphatidylinositol 4,5-bisphosphate 3-kinase catalytic subunit alpha isoform (P42336 whole entry, canonical isoform): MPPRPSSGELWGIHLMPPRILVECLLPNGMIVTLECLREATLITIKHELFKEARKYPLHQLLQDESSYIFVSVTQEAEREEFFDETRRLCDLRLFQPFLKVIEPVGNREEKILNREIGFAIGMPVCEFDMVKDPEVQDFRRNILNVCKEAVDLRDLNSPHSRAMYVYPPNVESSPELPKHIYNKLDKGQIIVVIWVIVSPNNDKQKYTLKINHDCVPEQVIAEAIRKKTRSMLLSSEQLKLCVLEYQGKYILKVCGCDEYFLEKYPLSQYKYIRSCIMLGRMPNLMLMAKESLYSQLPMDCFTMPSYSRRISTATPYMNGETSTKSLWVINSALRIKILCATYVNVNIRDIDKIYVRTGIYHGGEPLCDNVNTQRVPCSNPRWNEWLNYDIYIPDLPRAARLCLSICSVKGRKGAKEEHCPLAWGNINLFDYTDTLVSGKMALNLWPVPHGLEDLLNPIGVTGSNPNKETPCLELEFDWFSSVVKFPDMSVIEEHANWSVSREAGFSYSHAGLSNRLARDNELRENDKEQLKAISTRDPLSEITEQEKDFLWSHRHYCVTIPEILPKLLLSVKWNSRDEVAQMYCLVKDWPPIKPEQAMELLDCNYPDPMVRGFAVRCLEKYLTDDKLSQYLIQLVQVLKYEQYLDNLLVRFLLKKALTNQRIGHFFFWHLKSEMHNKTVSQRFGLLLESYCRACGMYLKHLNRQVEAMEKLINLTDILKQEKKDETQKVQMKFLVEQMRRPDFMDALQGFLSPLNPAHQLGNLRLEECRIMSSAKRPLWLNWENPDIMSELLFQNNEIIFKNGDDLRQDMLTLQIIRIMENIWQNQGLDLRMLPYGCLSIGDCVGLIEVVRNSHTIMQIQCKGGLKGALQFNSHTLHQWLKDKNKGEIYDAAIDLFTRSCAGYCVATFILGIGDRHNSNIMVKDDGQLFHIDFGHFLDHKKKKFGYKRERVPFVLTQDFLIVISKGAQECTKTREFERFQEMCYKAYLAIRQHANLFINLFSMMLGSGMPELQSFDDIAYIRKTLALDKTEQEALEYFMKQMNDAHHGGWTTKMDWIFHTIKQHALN
# [15] = test system: A2780; test: Antiproliferative activity against human A2780 cells; type: functional, cell-based
# [16] = test system: MDA-MB-231; test: Antiproliferative activity against human MDA-MB-231 cells
# [17] = test system: Jurkat; test: Antiproliferative activity against human Jurkat cells; type: functional, cell-based
# [18] = test system: PC-3; test: Antiproliferative activity against human PC-3 cells incubated for 72 hrs by colorimetric method; type: functional, cell-based; conditions: PC-3, 72 h
# [19] = test system: NCI-H23; test: Antiproliferative activity against human NCI-H23 cells incubated for 72 hrs by colorimetric method; type: functional, cell-based; conditions: NCI-H23, 72 h
# [20] = test system: SW-620; test: Antiproliferative activity against human SW620 cells incubated for 72 hrs by colorimetric method; type: functional, cell-based; conditions: SW-620, 72 h
# [21] = biological target: Histone deacetylase; test: Inhibition of HDAC (unknown origin); type: protein assay, Homo sapiens
# [22] = test system: MV4-11; test: Cytotoxicity against human MV4-11 cells assessed as reduction in cell growth incubated for 24 hrs by MTT assay; type: functional, cell-based; conditions: MV4-11, 24 h
# [23] = biological target: T1, Histone deacetylase 8 (Homo sapiens, UniProt Q9BY41); test: Inhibition of HDAC8 (unknown origin) using R-H-K(Ac)-K(Ac)-AFC as fluoregenic substrate by fluorescence based analysis
# T1 sequence (Q9BY41 whole entry): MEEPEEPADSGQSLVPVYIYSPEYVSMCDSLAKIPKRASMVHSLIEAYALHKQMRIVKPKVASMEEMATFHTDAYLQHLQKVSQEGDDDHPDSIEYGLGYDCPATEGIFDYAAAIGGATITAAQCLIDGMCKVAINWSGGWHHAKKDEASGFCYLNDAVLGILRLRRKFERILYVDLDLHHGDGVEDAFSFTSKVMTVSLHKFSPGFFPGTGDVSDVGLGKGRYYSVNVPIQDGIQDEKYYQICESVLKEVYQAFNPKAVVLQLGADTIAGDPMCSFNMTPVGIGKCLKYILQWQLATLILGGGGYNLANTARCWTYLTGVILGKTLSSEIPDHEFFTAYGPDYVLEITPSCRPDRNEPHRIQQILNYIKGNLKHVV
# [24] = test system: A549; test: Cytotoxicity against human A549 cells assessed as reduction in cell growth incubated for 24 hrs by MTT assay; type: functional, cell-based; conditions: A549, 24 h
# [25] = test system: MCF7; test: Cytotoxicity against human MCF7 cells assessed as reduction in cell growth incubated for 24 hrs by MTT assay; type: functional, cell-based; conditions: MCF7, 24 h
# [26] = test system: Daudi; test: Cytotoxicity against human Daudi cells assessed as reduction in cell growth incubated for 24 hrs by MTT assay; type: functional, cell-based
# [27] = test system: MCF7; test: cells; conditions: Homo sapiens
# [28] = test system: HeLa; test: Antiproliferative activity against human HeLa cells; type: functional, cell-based
compound,measurement,setting,value
CN1CCc2c(c3ccccc3n2Cc2ccc(C(=O)NO)cc2)C1 [TUBASTATIN A],IC50,[1],9.45 µM
same,IC50,[2],9.45 µM
same,IC50,[4],9.45 µM
COc1ccc2c(c1)[nH]c1c(C)nccc12 [HARMINE],IC50,[6],> 20 µM
same,IC50,[7],> 20 µM
same,IC50,[8],> 20 µM
same,IC50,[9],> 20 µM
COc1cc2c(Oc3ccc(NC(=O)C4(C(=O)Nc5ccc(F)cc5)CC4)cc3F)ccnc2cc1OCCCN1CCOCC1 [FORETINIB],IC50,[10],0.52 µM
same,IC50,[11],0.52 µM
same,IC50,[12],0.52 µM
COc1ncc(-c2ccc3nccc(C(=O)NCCCCC(=O)NO)c3c2)cc1NS(=O)(=O)c1cc(F)cc(F)c1,IC50,[13],0.0048 µM
same,IC50,[14],0.0013 µM
same,IC50,[15],2.15 µM
Cc1cnc(Nc2ccc(OCCN3CCCC3)cc2)nc1Nc1cccc(S(=O)(=O)NC(C)(C)C)c1 [FEDRATINIB],IC50,[16],0.56 µM
same,IC50,[17],0.56 µM
same,IC50,[8],0.56 µM
same,IC50,[9],0.56 µM
Cc1ccc(NS(=O)(=O)Nc2nc(C(=O)NO)cs2)cc1,IC50,[18],1.45 µM
same,IC50,[19],1.45 µM
same,IC50,[20],1.45 µM
same,IC50,[21],0.036 µM
O=C(CCCCCN1C(=O)c2ccccc2NC(=O)c2ccccc21)NO,IC50,[22],0.093 µM
same,IC50,[23],0.183 µM
same,IC50,[24],0.093 µM
same,IC50,[25],0.093 µM
same,IC50,[26],0.093 µM
COc1ncc(-c2ccc3nccc(C(=O)NCCCCCC(=O)NO)c3c2)cc1NS(=O)(=O)c1cc(F)cc(F)c1,IC50,[13],0.0048 µM
same,IC50,[14],0.0013 µM
same,IC50,[15],2.62 µM
CCN(CC)c1ccc2cc(C(=O)Oc3cccc(/C=C/C(=O)NO)c3)c(=O)oc2c1,IC50,[27],7.01 µM
same,IC50,[6],7.01 µM
same,IC50,[8],7.01 µM
same,IC50,[28],7.01 µM
O=C(CCCCCN1C(=O)c2ccccc2/C=C\c2ccccc21)NO,IC50,[22],0.093 µM
same,IC50,[23],0.183 µM
same,IC50,[24],0.093 µM
same,IC50,[25],0.093 µM
same,IC50,[26],0.093 µM
COc1cc2c(Oc3ccc(NC(=O)C4CCN(c5cccc(F)c5)C4=O)cc3)ccnc2cc1OCCCCCCC(=O)NO (configuration not stated),IC50,[10],0.28 µM
same,IC50,[11],0.28 µM
same,IC50,[12],0.28 µM
O=C(CCCCCN1C(=O)c2ccccc2NC(=O)c2cc3ccccc3cc21)NO,IC50,[22],0.093 µM
same,IC50,[23],0.183 µM
same,IC50,[24],0.093 µM
same,IC50,[25],0.093 µM
same,IC50,[26],0.093 µM
O=C(NO)c1csc(NS(=O)(=O)Nc2ccc(Cl)cc2)n1,IC50,[18],1.45 µM
same,IC50,[19],1.45 µM
same,IC50,[20],1.45 µM
same,IC50,[21],0.036 µM
